US12441695B2, “Substituted thiadiazinone dioxide and preparation method therefor, herbicidal composition, and application therefor” (Qingdao Kingagroot Chemical Compound Co., Ltd., priority 2019, dated 2025)

Experiments:
[1] = tested on: monocotyledonous and dicotyledonous weeds; experiment: Experiment on weeding effect in post-emergence stage (weeds); type: in vivo; conditions: 600 g/ha active ingredient plus water 450 kg/ha, 3 weeks after application, fresh weight control rate; for Amaranthus retroflexus activity level (growth control rate): fomesafen-resistant Amaranthus retroflexus
Text: The activity level criteria for plant damage (i.e., growth control rate) are as follows: • Level 5: growth control rate is above 85%; • Level 4: growth control rate is greater than or equal to 60% and less than 85%; • Level 3: growth control rate is greater than or equal to 40% and less than 60%; • Level 2: growth control rate is greater than or equal to 20% and less than 40%; • Level 1: growth control rate is greater than or equal to […]; • Level 0: growth control rate is less than 5%.
(§1) The above growth control rates are fresh weight control rates.
(§2) (1) Experiment on weeding effect in post-emergence stage: monocotyledonous and dicotyledonous weed seeds and major crop seeds (wheat, corn, rice, soybean, cotton, oilseed rape, millet, sorghum) were placed in plastic pots filled with soil, then covered with 0.5-2 cm of soil, allowed to grow in a good greenhouse environment. After 2-3 weeks of sowing, the test plants were treated. The tested compounds of the present invention were respectively dissolved in acetone, then added with Tween 80, diluted with a certain amount of water to obtain a solution with a certain concentration, and sprayed with a spray tower onto the plants. After the application, the plants were cultured for 3 weeks in the greenhouse, and then the experimental results of the weeding were listed in Table 2.

[2] = tested on: major crops (wheat, corn, rice, soybean, cotton, oilseed rape, millet, sorghum); experiment: Experiment on weeding effect in post-emergence stage (crops); type: in vivo; conditions: 600 g/ha active ingredient plus water 450 kg/ha, 3 weeks after application; for corn plant damage level (growth control rate): crop corn; for rice plant damage level (growth control rate): crop rice; for soybean plant damage level (growth control rate): crop soybean
Method: as §1
as §2, with “plants.” for “plants. After the application, the plants were cultured for 3 weeks in the greenhouse, and then the experimental results of the weeding were listed in Table 2.”

Structure (SMILES)	Amaranthus retroflexus activity level (growth control rate) [1]	Digitaria sanguinalis activity level (growth control rate) [1]	Echinochloa crus-galli activity level (growth control rate) [1]	Setaria viridis activity level (growth control rate) [1]	corn plant damage level (growth control rate) [2]	rice plant damage level (growth control rate) [2]	soybean plant damage level (growth control rate) [2]
CC(C)N1C(=O)c2cccc(F)c2NS1(=O)=O [D, reference compound]	2 (Level 2: growth control rate is greater than or equal to 20% and less than 40%)	1 (Level 1: growth control rate is greater than or equal to 500 and less than 200%)	1 (Level 1: growth control rate is greater than or equal to 500 and less than 200%)	2 (Level 2: growth control rate is greater than or equal to 20% and less than 40%)	0 (Level 0: growth control rate is less than 5%)	0 (Level 0: growth control rate is less than 5%)	1 (Level 1: growth control rate is greater than or equal to 500 and less than 200%)
CCOC(=O)OC(C)N1c2ccc(F)cc2C(=O)N(C(C)C)S1(=O)=O (centres unmarked) [Compound 64]	5 (Level 5: growth control rate is above 85%)	3 (Level 3: growth control rate is greater than or equal to 40% and less than 60%)	4 (Level 4: growth control rate is greater than or equal to 60% and less than 85%)	3 (Level 3: growth control rate is greater than or equal to 40% and less than 60%)	0 (Level 0: growth control rate is less than 5%)	0 (Level 0: growth control rate is less than 5%)	0 (Level 0: growth control rate is less than 5%)
COCC(=O)N1c2ccc(F)cc2C(=O)N(C(C)C)S1(=O)=O [Compound 185]	3 (Level 3: growth control rate is greater than or equal to 40% and less than 60%)	–	–	–	0 (Level 0: growth control rate is less than 5%)	0 (Level 0: growth control rate is less than 5%)	0 (Level 0: growth control rate is less than 5%)
CC(=O)N1c2c(Cl)cc(F)cc2C(=O)N(C(C)C)S1(=O)=O [Compound 152]	5 (Level 5: growth control rate is above 85%)	5 (Level 5: growth control rate is above 85%)	5 (Level 5: growth control rate is above 85%)	5 (Level 5: growth control rate is above 85%)	0 (Level 0: growth control rate is less than 5%)	0 (Level 0: growth control rate is less than 5%)	1 (Level 1: growth control rate is greater than or equal to 500 and less than 200%)
CC(C)C(=O)N1c2c(F)cc(F)cc2C(=O)N(C(C)C)S1(=O)=O [Compound 215]	5 (Level 5: growth control rate is above 85%)	5 (Level 5: growth control rate is above 85%)	5 (Level 5: growth control rate is above 85%)	5 (Level 5: growth control rate is above 85%)	1 (Level 1: growth control rate is greater than or equal to 500 and less than 200%)	–	–
CC(=O)N1c2ccc(F)cc2C(=O)N(C(C)C)S1(=O)=O [Compound 62]	5 (Level 5: growth control rate is above 85%)	–	3 (Level 3: growth control rate is greater than or equal to 40% and less than 60%)	3 (Level 3: growth control rate is greater than or equal to 40% and less than 60%)	0 (Level 0: growth control rate is less than 5%)	0 (Level 0: growth control rate is less than 5%)	0 (Level 0: growth control rate is less than 5%)
COCN1c2c(F)cc(F)cc2C(=O)N(C(C)C)S1(=O)=O [Compound 213]	3 (Level 3: growth control rate is greater than or equal to 40% and less than 60%)	–	–	–	0 (Level 0: growth control rate is less than 5%)	1 (Level 1: growth control rate is greater than or equal to 500 and less than 200%)	0 (Level 0: growth control rate is less than 5%)
CC(C)N1C(=O)c2cc(F)cc(F)c2N(C(C)OC(=O)OC2CCCCC2)S1(=O)=O (racemic) [Compound 227]	3 (Level 3: growth control rate is greater than or equal to 40% and less than 60%)	–	–	–	0 (Level 0: growth control rate is less than 5%)	1 (Level 1: growth control rate is greater than or equal to 500 and less than 200%)	1 (Level 1: growth control rate is greater than or equal to 500 and less than 200%)
CC(C)N1C(=O)c2cc(F)cc(I)c2NS1(=O)=O [Compound 145]	4 (Level 4: growth control rate is greater than or equal to 60% and less than 85%)	4 (Level 4: growth control rate is greater than or equal to 60% and less than 85%)	4 (Level 4: growth control rate is greater than or equal to 60% and less than 85%)	5 (Level 5: growth control rate is above 85%)	1 (Level 1: growth control rate is greater than or equal to 500 and less than 200%)	0 (Level 0: growth control rate is less than 5%)	0 (Level 0: growth control rate is less than 5%)
CC(C)OC(=O)N1c2ccc(F)cc2C(=O)N(C(C)C)S1(=O)=O [Compound 63]	5 (Level 5: growth control rate is above 85%)	3 (Level 3: growth control rate is greater than or equal to 40% and less than 60%)	4 (Level 4: growth control rate is greater than or equal to 60% and less than 85%)	3 (Level 3: growth control rate is greater than or equal to 40% and less than 60%)	0 (Level 0: growth control rate is less than 5%)	0 (Level 0: growth control rate is less than 5%)	0 (Level 0: growth control rate is less than 5%)
CC(C)N1C(=O)c2cccnc2NS1(=O)=O [F, reference compound]	2 (Level 2: growth control rate is greater than or equal to 20% and less than 40%)	2 (Level 2: growth control rate is greater than or equal to 20% and less than 40%)	2 (Level 2: growth control rate is greater than or equal to 20% and less than 40%)	2 (Level 2: growth control rate is greater than or equal to 20% and less than 40%)	1 (Level 1: growth control rate is greater than or equal to 500 and less than 200%)	1 (Level 1: growth control rate is greater than or equal to 500 and less than 200%)	1 (Level 1: growth control rate is greater than or equal to 500 and less than 200%)
CC(C)N1C(=O)c2cc(F)cnc2NS1(=O)=O [Compound 75]	4 (Level 4: growth control rate is greater than or equal to 60% and less than 85%)	–	3 (Level 3: growth control rate is greater than or equal to 40% and less than 60%)	3 (Level 3: growth control rate is greater than or equal to 40% and less than 60%)	1 (Level 1: growth control rate is greater than or equal to 500 and less than 200%)	1 (Level 1: growth control rate is greater than or equal to 500 and less than 200%)	–
CC(C)N1C(=O)c2cc(F)cc(F)c2NS1(=O)=O [Compound 142]	5 (Level 5: growth control rate is above 85%)	5 (Level 5: growth control rate is above 85%)	5 (Level 5: growth control rate is above 85%)	5 (Level 5: growth control rate is above 85%)	1 (Level 1: growth control rate is greater than or equal to 500 and less than 200%)	1 (Level 1: growth control rate is greater than or equal to 500 and less than 200%)	1 (Level 1: growth control rate is greater than or equal to 500 and less than 200%)
